Assay results as given in patent US5616556A, “Method of treating rheumatoid arthritis and osteoarthrosis using tetrahydro WS9326A” (Fujisawa Pharmaceutical Co., Ltd., priority 1990, dated 1997).
Starred links: 1 amine or outer side, 2 acyl side, 3 side chain; linkers in the order of their positions; H or OH if unused. Positions of bridges follow the written chain, without caps; N, C: chain ends. Non-standard residues stand in square brackets, D forms with d. Residues, ends and D or L forms follow the SMILES beside them. *: point of attachment. X2 = CN(/C(=C/c1ccc(O)cc1)C(=O)[*:2])[*:1]; aThr = C[C@H](O)[C@H](N)C(=O)O; X1 = CCCCCc1ccccc1CCC(=O)*

How the values were obtained:
rabbits = conditions: rabbit, in vivo, 8 mg/kg
Method: (§1) An injectable suspension containing the test compound and other ingredients mentioned below was administered into the knee joint of rabbits (6 males and 6 females) and dogs (3 males and 3 females) twice a week for 4 weeks. The dose was 8 mg/kg for rabbits and 12 mg/kg for dogs.

dogs = conditions: dog, in vivo, 12 mg/kg
Method: as §1

CCCCCc1ccccc1CCC(=O)N[C@@H]1C(=O)N(C)/C(=C/c2ccc(O)cc2)C(=O)N[C@@H](CC(C)C)C(=O)N[C@H](Cc2ccccc2)C(=O)N[C@@H]([C@H](C)O)C(=O)N[C@@H](CC(N)=O)C(=O)N[C@@H](CO)C(=O)O[C@@H]1C [tetrahydro-WS9326A] (X1-T[X2]L[dF][aThr]NS; ester 1-C)
death (rabbits): caused death in neither rabbits nor dogs | death (dogs): caused death in neither rabbits nor dogs
